In patent US5434182A (priority 1993, dated 1995):
“And” between values parts separate entries of the source, which are not always exact repeats. Equal entries are not always repeated. “Also recorded” adds a separate entry of the source. Structures can show the parent of a compound that is named as a salt. Where two headings read alike, the source gives them in different places.

Key:
[1] = tested on: Visna virus; assay: microbe, parasite or virus in culture; format: cell-based, Visna virus strain K796; conditions: 37° C., 30 min; for log reduction at 2000 µg/mL: 2 mg/ml
[2] = tested on: HSV-1; assay: microbe, parasite or virus in culture; format: cell-based, herpes simplex virus type 1 strain MacIntyre; conditions: 37° C., 30 min; for log reduction at 2000 µg/mL: 2 mg/ml
[3] = tested on: VSV; assay: microbe, parasite or virus in culture; format: cell-based, vesicular stomatitis virus strain Indiana; conditions: for minimal effective concentration: read-out: lowest concentration which reduced the VSV titer by ≥4.0 log10 units; for antiviral effect in words: fatty acids of Table 2
[4] = tested on: poliovirus; format: cell-based, Poliovirus type 1 strain Chat; conditions: 8 mg/ml, 37° C., 30 min; control 10^4.7 TCID50
[5] = tested on: VSV; assay: microbe, parasite or virus in culture; format: cell-based, vesicular stomatitis virus; conditions: for log reduction at 5000 µM / log reduction at 10000 µM: Vesicular stomatitis virus, read-out: Log10 Reduction in VSV Titer
[6] = tested on: VSV; assay: microbe, parasite or virus in culture; format: cell-based, vesicular stomatitis virus
[7] = tested on: sperm; assay: Spermicidal test: motility and viability of sperm in semen; format: cell-based; conditions: for coating of sperm: B, D 100 mM in semen, 30 minutes
Protocol: The fatty acids and derivatives thereof disclosed here are useful as spermicides and in the treatment of sexually transmitted diseases. […] Four samples tested were comprised as follows:
Five test tubes were prepared, one for each of Samples A to D and a Control. An amount of 0.5 ml of active semen was added to each test tube. Each of Samples A and B and the Control was at 37° C., and Samples C and D were at room temperature. The percentages of motility and viability were measured from 15 seconds to 5 minutes in the case of each of Samples A to D and from 15 seconds to 2 hours for the Control.

[8] = tested on: VSV; assay: microbe, parasite or virus in culture; format: cell-based, vesicular stomatitis virus strain Indiana
[9] = tested on: Total White Blood Cells; assay: Stability of white blood cells in whole human blood to added lipid; format: cell-based; parameters: unit not given here; conditions: 15 mM, control 6.4
Excerpt: Further testing has shown the effect of monoglyceride esters and ether on the total white blood cell concentration in whole human blood.

[10] = Visna-maedi virus, 0.5 h, read-out: Reduction of virus titer, VV (visna virus)
[11] = Human alphaherpesvirus 1, 0.5 h, read-out: Reduction of virus titer, HSV-1
[12] = Vesicular stomatitis virus, 0.5 h, read-out: Reduction of virus titer, VSV
[13] = Vesicular stomatitis virus, 0.5 h
[14] = 100 mM in semen, 5 min., Sample B 37° C., Sample D room temperature
[15] = 150 mM in semen, 3 min., Sample A 37° C., Sample C room temperature
[16] = 150 mM in semen, 5 min., Sample A 37° C., Sample C room temperature

Molecule: CC/C=C\C/C=C\C/C=C\CCCCCCCC(=O)O [Linolenic (18:3), Linolenic]
- Reduction of virus titer, VV (visna virus) ([1]; 1 mg/ml): ≥ 3.2 log10
- Reduction of virus titer, HSV-1 ([2]; 1 mg/ml): ≥ 4.0 log10
- Reduction of virus titer, VSV ([3]; 1 mg/ml, 37° C., 30 min): ≥ 4.0 log10
- lowest concentration which reduced the VSV titer by ≥4.0 log10 units ([3]; 37° C., 30 min): 1 mg/ml and 3.6 mM
- reduction of poliovirus titer [4]: did not cause a significant reduction of virus titer

Molecule: L-α-lysophosphatidylcholine caproyl
- Log10 Reduction in VSV Titer ([5]; 5 mM, no sodium taurocholate): 0 Log10
- Log10 Reduction in VSV Titer ([5]; 5 mM, with 10 mM sodium taurocholate): 0 Log10
- Log10 Reduction in VSV Titer ([5]; 10 mM, no sodium taurocholate): 0 Log10
- Log10 Reduction in VSV Titer ([5]; 10 mM, with 10 mM sodium taurocholate): 0 Log10
- Log10 Reduction in VSV Titer ([5]; 15 mM, no sodium taurocholate): 0 Log10
- Log10 Reduction in VSV Titer ([5]; 15 mM, with 10 mM sodium taurocholate): 1.0 Log10

Molecule: CCCCCCCC/C=C\CCCCCCCC(=O)O [Oleic (18:1 cis), Oleic]
- log reduction at 2000 µg/mL [1, 10]: ≥ 3.2
- log reduction at 2000 µg/mL [2, 11]: ≥ 4
- log reduction at 2000 µg/mL [3, 12]: ≥ 4
- minimal effective concentration [3, 13]: 2000 µg/mL and 7000 µM
- reduction of poliovirus titer [4]: did not cause a significant reduction of virus titer

Molecule: CCCCCCCCCCCCCCCC(=O)O [Palmitic (16:0), Palmitic]
- log reduction at 20000 µg/mL ([1]; Visna-maedi virus, 0.5 h, 20 mg/ml, read-out: Reduction of virus titer, VV (visna virus)): 0.7
- log reduction at 20000 µg/mL ([2]; Human alphaherpesvirus 1, 0.5 h, 20 mg/ml, read-out: Reduction of virus titer, HSV-1): 1
- log reduction at 20000 µg/mL [3, 12]: 1
- antiviral effect in words [3]: no or a very small antiviral effect

Molecule: CCCCCC/C=C\CCCCCCCC(=O)O [Palmitoleic (16:1), Palmitoleic]
- log reduction at 2000 µg/mL [1, 10]: ≥ 3.2
- log reduction at 2000 µg/mL [2, 11]: ≥ 4
- log reduction at 2000 µg/mL [3, 12]: ≥ 4
- minimal effective concentration [3, 13]: 2000 µg/mL and 15000 µM
- reduction of poliovirus titer [4]: did not cause a significant reduction of virus titer

Molecule: CCCCCCCCCC(=O)O [Capric (10:0), Capric]
- log reduction at 4000 µg/mL ([1]; Visna-maedi virus, 0.5 h, 4 mg/ml, read-out: Reduction of virus titer, VV (visna virus)): ≥ 3.2
- log reduction at 4000 µg/mL ([2]; Human alphaherpesvirus 1, 0.5 h, 4 mg/ml, read-out: Reduction of virus titer, HSV-1): ≥ 4
- log reduction at 4000 µg/mL [3, 12]: ≥ 4
- minimal effective concentration [3, 13]: 4000 µg/mL and 22000 µM
- reduction of poliovirus titer [4]: did not cause a significant reduction of virus titer

Molecule: CCCCCCCCCCCCCCCCCC(=O)O [Stearic (18:0), Stearic]
- log reduction at 20000 µg/mL [3, 12]: 0
- antiviral effect in words [3]: no or a very small antiviral effect

Molecule: CCCCCCCCCC(=O)OC[C@@H](O)COP(=O)([O-])OCC[N+](C)(C)C [L-α-lysophosphatidylcholine decanoyl]
- Log10 Reduction in VSV Titer [5]: 1.7 Log10
- log reduction at 5000 µM [5]: 1.7
- log reduction at 10000 µM [5]: 1

Molecule: CCCCCCCC/C=C\CCCCCCCCOC[C@@H](O)CO [1-O-Oleyl-sn-glycerol, 1-O-oleyl-sn-glycerol]
- log reduction at 5000 µM ([6]; Vesicular stomatitis virus, 0.5 h, read-out: Reduction in VSV Titer, 5 mM, no sodium taurocholate, human plasma, 37° 30 min): 0
- log reduction at 10000 µM ([6]; Vesicular stomatitis virus, 0.5 h, read-out: Reduction in VSV Titer, 10 mM, no sodium taurocholate, human plasma, 37° 30 min): 0
- log reduction at 15000 µM ([6]; Vesicular stomatitis virus, 0.5 h, read-out: Reduction in VSV Titer, 15 mM, no sodium taurocholate, human plasma, 37° 30 min): 0
- antiviral activity of MG ethers relative to esters, in words ([6]; human plasma): same lack of antiviral activity as the ester

Molecule: N-dodecylsucrose
- % mot. ([7]; 100 mM in semen, 15 sec., Sample B 37° C., Sample D room temperature): 17%
- % mot. ([7]; 100 mM in semen, 30 sec., Sample B 37° C., Sample D room temperature): 9%
- % mot. ([7]; 100 mM in semen, 1 min., Sample B 37° C., Sample D room temperature): 2%
- % mot. ([7]; 100 mM in semen, 2 min., Sample B 37° C., Sample D room temperature): 0%
- % mot. ([7]; 100 mM in semen, 3 min., Sample B 37° C., Sample D room temperature): 0%
- % mot. [7, 14]: 0%
- % via. [7, 14]: 0%
- % mot. ([7]; 150 mM in semen, 15 sec., Sample A 37° C., Sample C room temperature): 0%
- % mot. ([7]; 150 mM in semen, 30 sec., Sample A 37° C., Sample C room temperature): 0%
- % mot. ([7]; 150 mM in semen, 1 min., Sample A 37° C., Sample C room temperature): 0%
- % mot. ([7]; 150 mM in semen, 2 min., Sample A 37° C., Sample C room temperature): 0%
- % mot. [7, 15]: 0%
- % via. [7, 15]: 0%
- % mot. [7, 16]: 0%
- % via. [7, 16]: 0%
- time within which 0% viability was effected ([7]; A, C 150 mM, B 100 mM in semen): ≤ 3 min
- time within which sperm cells were rendered immobile ([7]; A, C 150 mM, B 100 mM in semen): ≤ 15 s
- coating of sperm ([7]; A, C 150 mM, listed as Solution C): coated the sperm effectively; also recorded: most effective in this regard
- coating of sperm ([7]; A, C 150 mM, listed as Solution D): did not have any coating effect at all

Molecule: CCCCCCCC/C=C\CCCCCCCC(=O)O [sodium salt of oleic acid]
- antiviral effect in words [3]: antiviral effects similar to those of the free acids

Molecule: CCCCCCCC/C=C/CCCCCCCC(=O)O [Elaidic (18:1 trans), Elaidic]
- log reduction at 2000 µg/mL [3, 12]: ≥ 4
- minimal effective concentration [3, 13]: 2000 µg/mL and 7000 µM

Molecule: CCCCCCCC/C=C\CCCCCCCC(=O)OCC(O)CO (centres unmarked) [Monoolein (18:1), Monoolein]
- concentration with highest antiviral activity of the concentrations tested (0.5 to 4 mg/ml) ([8]; VSV, 37° C., 30 min): 1.0 mg/ml and 2.8 mM
- log reduction at 1000 µg/mL [8, 12]: 2.3

Molecule: CCCCCC(=O)O [Caproic (6:0), Caproic]
- log reduction at 10000 µg/mL [3, 12]: 0
- antiviral effect in words [3]: no or a very small antiviral effect

Molecule: CCCCCCCCCCCC(=O)OC[C@@H](O)COP(=O)([O-])OCC[N+](C)(C)C [L-α-Lysophosphatidylcholine lauroyl]
- Log10 Reduction in VSV Titer [5]: 1.7 Log10 and 2.0 Log10
- log reduction at 5000 µM [5]: 1.2
- log reduction at 10000 µM [5]: 2

Molecule: CCCCCCCC(=O)O [Caprylic (8:0), Caprylic]
- log reduction at 10000 µg/mL ([1]; Visna-maedi virus, 0.5 h, 10 mg/ml, read-out: Reduction of virus titer, VV (visna virus)): ≥ 3.2
- log reduction at 10000 µg/mL [3, 12]: 1.8
- antiviral effect in words [3]: no or a very small antiviral effect

Molecule: CCCCC/C=C\C/C=C\C/C=C\C/C=C\CCCC(=O)O [Arachidonic (20:4), arachidonic acid]
- log reduction at 500 µg/mL [3, 12]: ≥ 4
- minimal effective concentration [3, 13]: 500 µg/mL and 1600 µM
- reduction of poliovirus titer [4]: did not cause a significant reduction of virus titer

Molecule: CCCCCCCCCCOC[C@@H](O)CO [1-O-Decyl-sn-glycerol, 1-O-decyl-sn-glycerol]
- Total White Blood Cells [9]: 1.31
- Reduction in VSV titer ([6]; 5 mM, with 10 mM sodium taurocholate, human plasma, 37° 30 min): 0 Log10
- antiviral activity of MG ethers relative to esters, in words ([6]; human plasma): just as effective as the naturally occurring esters

Molecule: CCCC(=O)O [Butyric (4:0), Butyric]
- log reduction at 10000 µg/mL [3, 12]: 0
- antiviral effect in words [3]: no or a very small antiviral effect

Molecule: CCCCC/C=C\C/C=C\CCCCCCCC(=O)O [sodium salt of linoleic acid]
- antiviral effect in words [3]: antiviral effects similar to those of the free acids
